Assay results from the supplement of paper PMC10307832.

How the values were obtained:
Test in all cases: relative viability (nuclei count vs DMSO), 5 days (fraction); higher = more cells survive
Linifanib + Palbociclib = compound: Cc1ccc(F)c(NC(=O)Nc2ccc(-c3cccc4[nH]nc(N)c34)cc2)c1 [Linifanib] + CC(=O)c1c(C)c2cnc(Nc3ccc(N4CCNCC4)cn3)nc2n(C2CCCC2)c1=O [Palbociclib] (partner 0.5 µM)
Method in brief: (§1)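 Dosing by pin tool came one day after lung cancer cell lines were seeded in 1536-well plates, using either one drug or a fixed anchor-drug dose plus five library-drug doses (not always all listed) in √10 steps. After 5 days, nuclei were counted on 4× images. Relative viability is treated-well nuclei count divided by vehicle-well nuclei count, and values are medians of duplicate plates.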

Linifanib + Alpelisib = compound: Cc1ccc(F)c(NC(=O)Nc2ccc(-c3cccc4[nH]nc(N)c34)cc2)c1 [Linifanib] + Cc1nc(NC(=O)N2CCC[C@H]2C(N)=O)sc1-c1ccnc(C(C)(C)C(F)(F)F)c1 [Alpelisib] (partner 2 µM)
Method in brief: as §1

Linifanib + Pictilisib = compound: Cc1ccc(F)c(NC(=O)Nc2ccc(-c3cccc4[nH]nc(N)c34)cc2)c1 [Linifanib] + CS(=O)(=O)N1CCN(Cc2cc3nc(-c4cccc5[nH]ncc45)nc(N4CCOCC4)c3s2)CC1 [Pictilisib] (partner 1 µM)
Method in brief: as §1

Linifanib + Phenformin = compound: Cc1ccc(F)c(NC(=O)Nc2ccc(-c3cccc4[nH]nc(N)c34)cc2)c1 [Linifanib] + N=C(N)NC(=N)NCCc1ccccc1 [Phenformin] (partner 250 µM)
Method in brief: as §1

Linifanib + Lapatinib = compound: Cc1ccc(F)c(NC(=O)Nc2ccc(-c3cccc4[nH]nc(N)c34)cc2)c1 [Linifanib] + CS(=O)(=O)CCNCc1ccc(-c2ccc3ncnc(Nc4ccc(OCc5cccc(F)c5)c(Cl)c4)c3c2)o1 [Lapatinib] (partner 2 µM)
Method in brief: as §1

Linifanib + Vorinostat = compound: Cc1ccc(F)c(NC(=O)Nc2ccc(-c3cccc4[nH]nc(N)c34)cc2)c1 [Linifanib] + O=C(CCCCCCC(=O)Nc1ccccc1)NO [Vorinostat] (partner 1 µM)
Method in brief: as §1

Cell Line	relative viability (Linifanib + Palbociclib; first compound 0.03162 µM)	relative viability (Linifanib + Palbociclib; first compound 0.1 µM)	relative viability (Linifanib + Palbociclib; first compound 0.3162 µM)	relative viability (Linifanib + Alpelisib; first compound 0.03162 µM)	relative viability (Linifanib + Alpelisib; first compound 0.1 µM)	relative viability (Linifanib + Alpelisib; first compound 0.3162 µM)	relative viability (Linifanib + Pictilisib; first compound 0.03162 µM)	relative viability (Linifanib + Pictilisib; first compound 0.1 µM)	relative viability (Linifanib + Pictilisib; first compound 0.3162 µM)	relative viability (Linifanib + Phenformin; first compound 0.03162 µM)	relative viability (Linifanib + Phenformin; first compound 0.1 µM)	relative viability (Linifanib + Phenformin; first compound 0.3162 µM)	relative viability (Linifanib + Lapatinib; first compound 0.03162 µM)	relative viability (Linifanib + Lapatinib; first compound 0.1 µM)	relative viability (Linifanib + Lapatinib; first compound 0.3162 µM)	relative viability (Linifanib + Vorinostat; first compound 0.03162 µM)	relative viability (Linifanib + Vorinostat; first compound 0.1 µM)	relative viability (Linifanib + Vorinostat; first compound 0.3162 µM)
201T	0.369	0.371	0.348	1	1.06	0.978	0.69	0.704	0.668	0.503	0.473	0.422	1.07	1.03	1.05	1.01	0.981	1.02
NCI-H2228	0.803	0.85	0.818	0.821	0.827	0.843	0.415	0.64	0.386	0.242	0.296	0.301	0.998	1.3	0.922	0.794	0.808	0.603
NCI-H322M	0.488	0.487	0.441	0.81	0.823	0.754	0.513	0.491	0.557	0.756	0.819	0.737	0.582	0.539	0.537	0.848	0.914	0.876
HARA	0.274	0.244	0.303	0.864	0.983	0.756	0.337	0.52	0.3	0.446	0.539	0.476	0.815	0.905	0.73	0.598	0.479	0.579
CAL-12T	0.485	0.446	0.419	1.27	1.3	1.28	0.439	0.478	0.33	0.636	0.617	0.458	0.75	0.819	0.534	0.884	0.986	0.724
NCI-H2087	0.219	0.285	0.269	1.28	1.17	1.03	0.977	0.989	0.825	0.431	0.51	0.431	1.15	1.2	0.672	0.854	0.695	0.598
NCI-H727	0.596	0.67	0.651	0.613	0.6	0.483	0.3	0.431	0.385	0.609	0.574	0.609	0.781	1.05	0.716	1.29	1.18	1.09
H3255	0.358	0.302	0.312	0.752	0.787	0.706	0.509	0.507	0.488	0.345	0.203	0.438	0.246	0.508	0.242	0.788	0.795	0.812
LXF-289	0.668	0.612	0.564	1.11	1.04	1.02	0.849	0.874	0.784	0.558	0.536	0.496	0.914	0.936	0.831	0.85	0.762	0.807
